From patent US9334286B2, “Pharmacologically active compounds” (Cancer Research Technology Limited, priority 2012, dated 2016)

Target: full length MPS1 (Homo sapiens (Human), UniProt P33981)
Assay: Measurement of inhibition of MPS1 kinase (Caliper EZ reader, fluorescent labelled peptide H236)
Format: biochemical
Settings: full length MPS1 12.5 nM or 3 nM, peptide H236 5 μM, ATP 10 μM, 60 min at room temperature
Description: The reaction was carried out for 60 min at room temperature and stopped by the addition of buffer (10 μl) containing 20 mM EDTA, 0.05% (v/v) Brij-35, in 0.1M HEPES-buffered saline (Free acid, Sigma, UK). The plate was read on a Caliper EZ reader II (Caliper Life Sciences).
The reader provides a Software package (‘Reviewer’) which converts the peak heights into % conversion by measuring both product and substrate peak and also allows selection of control well which represent 0% and 100% inhibition respectively. The % inhibition of the compounds is calculated relative to the means of selected control wells. IC50s are determined by testing the compounds at a range of concentrations from 0.25 nM-100 μM. The % inhibitions at each concentration are then fitted to a 4 parameter logistic fit: y=(a+((b−a)/(1+((c/x^d)))) where a=asym min, b=asym max, c=IC50 and d=hill coefficient

Sequence of full length MPS1 (P33981 whole entry): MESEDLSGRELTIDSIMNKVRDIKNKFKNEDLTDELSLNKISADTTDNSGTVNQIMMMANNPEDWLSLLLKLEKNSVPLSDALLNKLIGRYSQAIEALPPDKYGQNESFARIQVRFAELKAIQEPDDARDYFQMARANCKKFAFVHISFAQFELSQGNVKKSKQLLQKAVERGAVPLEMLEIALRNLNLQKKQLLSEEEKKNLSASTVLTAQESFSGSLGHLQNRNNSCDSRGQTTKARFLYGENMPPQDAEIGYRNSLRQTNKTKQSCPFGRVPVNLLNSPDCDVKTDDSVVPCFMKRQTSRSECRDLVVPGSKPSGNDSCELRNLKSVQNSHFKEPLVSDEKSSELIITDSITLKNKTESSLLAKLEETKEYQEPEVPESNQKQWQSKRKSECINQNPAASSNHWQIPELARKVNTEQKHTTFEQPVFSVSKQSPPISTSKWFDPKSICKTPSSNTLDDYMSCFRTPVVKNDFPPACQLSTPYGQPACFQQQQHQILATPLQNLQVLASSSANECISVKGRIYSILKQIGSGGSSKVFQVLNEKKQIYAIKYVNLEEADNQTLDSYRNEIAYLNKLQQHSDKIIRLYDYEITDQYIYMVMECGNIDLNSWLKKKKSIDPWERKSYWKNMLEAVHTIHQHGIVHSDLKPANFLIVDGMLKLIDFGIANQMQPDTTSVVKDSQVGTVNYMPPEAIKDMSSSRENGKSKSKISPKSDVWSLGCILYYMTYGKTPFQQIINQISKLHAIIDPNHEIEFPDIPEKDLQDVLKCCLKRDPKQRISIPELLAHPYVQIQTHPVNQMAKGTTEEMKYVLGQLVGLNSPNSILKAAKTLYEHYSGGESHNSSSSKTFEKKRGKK

SMILES | IC50
COc1cc(-c2cnn(C)c2)ccc1Nc1cc2nc(-c3cnn(C)c3)ccc2cn1 [Example 100, N-(2-Methoxy-4-(1-methyl-1H-pyrazol-4-yl)phenyl)-2-(1-methyl-1H-pyrazol-4-yl)-1,6-naphthyridin-7-amine] | 6 nM
COc1cc(-c2cnn(C)c2)ccc1Nc1cc2nc(-c3cnn(CC(C)(C)O)c3)ccc2cn1 [Example 101, 1-(4-(7-(2-Methoxy-4-(1-methyl-1H-pyrazol-4-yl)phenylamino)-1,6-naphthyridin-2-yl)-1H-pyrazol-1-yl)-2-methylpropan-2-ol] | 3 nM
CCn1cc(-c2ccc3cnc(Nc4ccc(-c5cnc(C)n5C)cc4OC)cc3c2)cn1 [Example 10, N-(4-(1,2-dimethyl-1H-imidazol-5-yl)-2-methoxyphenyl)-6-(1-ethyl-1H-pyrazol-4-yl)isoquinolin-3-amine] | 7 nM
CC(C)(O)Cn1cc(-c2ccc3cnc(Nc4ccc(N5CCOCC5)cc4Cl)cc3c2)cn1 [Example 45, 1-(4-(3-(2-Chloro-4-morpholinophenylamino)isoquinolin-6-yl)-1H-pyrazol-1-yl)-2-methylpropan-2-ol] | 45 nM
CCOc1cc(-c2nncn2C)ccc1Nc1cc2cc(-c3cnn(CC4(O)CCC4)c3)ccc2cn1 [Example 88, 1-((4-(3-((2-Ethoxy-4-(4-methyl-4H-1,2,4-triazol-3-yl)phenyl)amino)isoquinolin-6-yl)-1H-pyrazol-1-yl)methyl)cyclobutanol] | 7 nM
COc1cc(-c2cnc(C)n2C)ccc1Nc1cc2cc(C(=O)N(C)C)ccc2cn1 [Example 89, 3-((4-(1,2-Dimethyl-1H-imidazol-5-yl)-2-methoxyphenyl)amino)-N,N-dimethylisoquinoline-6-carboxamideone] | 472 nM
COc1cc(C#N)ccc1Nc1cc2cc(-c3cnn(CC(C)(C)O)c3)ccc2cn1 [Example 49, 4-(6-(1-(2-Hydroxy-2-methylpropyl)-1H-pyrazol-4-yl)isoquinolin-3-ylamino)-3-methoxy-benzonitrile] | 11 nM
CC(C)(O)Cn1cc(-c2ccc3cnc(Nc4ccc(-c5cncnc5)cc4Cl)cc3c2)cn1 [Example 58, 1-(4-(3-((2-Chloro-4-(pyrimidin-5-yl)phenyl)amino)isoquinolin-6-yl)-1H-pyrazol-1-yl)-2-methylpropan-2-ol] | 5 nM
COc1cc(C(=O)N2CC(OC)C2)ccc1Nc1cc2cc(-c3cnn(C4COCC4O)c3)ccc2cn1 (racemic) [Example 82, (4-((6-(1-(4-Hydroxytetrahydrofuran-3-yl)-1H-pyrazol-4-yl)isoquinolin-3-yl)amino)-3-methoxyphenyl)(3-methoxyazetidin-1-yl)methanone] | 5 nM
COCC1CN(C(=O)c2ccc(Nc3cc4cc(-c5cnn(CC(C)(C)O)c5)ccc4cn3)c(OC)c2)C1 [Example 86, (4-((6-(1-(2-Hydroxy-2-methylpropyl)-1H-pyrazol-4-yl)isoquinolin-3-yl)amino)-3-methoxy-phenyl)(3-(methoxymethyl)azetidin-1-yl)methanone] | 7 nM
COc1cc(-c2cnc(C)n2C)ccc1Nc1cc2cc(-c3cnn(C(C)C(C)(C)O)c3)ccc2cn1 (racemic) [Example 68, 3-(4-(3-((4-(1,2-Dimelhyl-1H-imidazol-5-yl)-2-methoxyphenyl)amino)isoquinolin-6-yl)-1H-pyrazol-1-yl)-2-methylbutan-2-ol] | 6 nM
COc1cc(-c2cnc(C)n2C)ccc1Nc1cc2cc(-c3cnnn3C)ccc2cn1 [Example 27, N-(4-(1,2-dimethyl-1H-imidazol-5-yl)-2-methoxyphenyl)-6-(1-methyl-1H-1,2,3-triazol-5-yl)isoquinolin-3-amine] | 4 nM
COCCn1cc(-c2ccc3cnc(Nc4ccc(C(=O)N5CC(OC)C5)cc4OC)cc3c2)cn1 [Example 72, (3-Methoxy-4-((6-(1-(2-methoxyethyl)-1H-pyrazol-4-yl)isoquinolin-3-yl)amino)phenyl)(3-methoxyazetidin-1-yl)methanone] | 3 nM
COc1cc(-c2cnc(C)n2C)ccc1Nc1cc2cc(-c3cncnc3)ccc2cn1 [Example 17, N-(4-(1,2-dimethyl-1H-imidazol-5-yl)-2-methoxyphenyl)-6-(pyrimidin-5-yl)isoquinolin-3-amine] | 14 nM
COc1cc(-c2cnc(C)n2C)ccc1Nc1cc2cc(-c3sc(C)nc3C)ccc2cn1 [Example 13, N-(4-(1,2-dimethyl-1H-imidazol-5-yl)-2-methoxyphenyl)-6-(2,4-dimethylthiazol-5-yl)isoquinolin-3-amine] | 97 nM

Continued by falling IC50, values first:

IC50 | SMILES
3 nM | Cc1ncc(-c2ccc(Nc3cc4cc(-c5cnn(CC(C)(C)O)c5)ccc4cn3)c(Cl)c2)n1C [Example 42, 1-(4-(3-((2-Chloro-4-(1,2-dimethyl-1H-imidazol-5-yl)phenyl)amino)isoquinolin-6-yl)-1H-pyrazol-1-yl)-2-methylpropan-2-ol]
3 nM | COc1cc(-c2cnc(C)n2C)ccc1Nc1cc2cc(-c3cnn(C)c3CO)ccc2cn1 [Example 34, (4-(3-((4-(1,2-Dimethyl-1H-imidazol-5-yl)-2-methoxyphenyl)amino)isoquinolin-6-yl)-1-methyl-1H-pyrazol-5-yl)methanol]
3 nM | COc1cc(C(=O)N2CC(OC)C2)ccc1Nc1cc2cc(-c3cnn(CC(O)CO)c3)ccc2cn1 (racemic) [Example 81, (4-((6-(1-(2,3-Dihydroxypropyl)-1H-pyrazol-4-yl)isoquinolin-3-yl)amino)-3-methoxyphenyl)(3-methoxyazetidin-1-yl)methanone]
3 nM | COc1cc(C(=O)N2CC(OC)C2)ccc1Nc1cc2cc(-c3cnn(CC(C)(C)OC)c3)ccc2cn1 [Example 74, (3-Methoxy-4-((6-(1-(2-methoxy-2-rnethylpropyl)-1H-pyrazol-4-yl)isoquinolin-3-yl)amino)-phenyl)(3-methoxyazetidin-1-yl)methanone]
2 nM | CCOc1cc(C(=O)N2CC(OC)C2)ccc1Nc1cc2cc(-c3cnn(CC(C)(C)O)c3)ccc2cn1 [Example 92, (3-Ethoxy-4-(6-(1-(2-hydroxy-2-methylpropyl)-1H-pyrazol-4-yl)isoquinolin-3-ylamino)phenyl)(3-methoxyazetidin-1-yl)methanone]
2 nM | COCCn1cc(-c2ccc3cnc(Nc4ccc(-c5cnc(C)n5CCOC)cc4OC)cc3c2)cn1 [Example 31, N-(2-Methoxy-4-(1-(2-methoxyethyl)-2-methyl-1H-imidazol-5-yl)phenyl)-6-(1-(2-methoxyethyl)-1H-pyrazol-4-yl)isoquinolin-3-amine]
2 nM | COc1cc(C(=O)N(C)C)ccc1Nc1cc2cc(-c3cnn(CC(C)(C)O)c3)ccc2cn1 [Example 60, 4-((6-(1-(2-Hydroxy-2-methylpropyl)-1H-pyrazol-4-yl)isoquinolin-3-yl)amino)-3-methoxy-N,N-dimethylbenzamide]
2 nM | COc1cc(C(=O)NCCO)ccc1Nc1cc2cc(-c3cnn(CC(C)(C)O)c3)ccc2cn1 [Example 61, 4-((6-(1-(2-Hydroxy-2-methylpropyl)-1H-pyrazol-4-yl)isoquinolin-3-yl)amino)-N-(2-hydroxyethyl)-3-methoxybenzamide]
2 nM | COc1cc(C(=O)N2CC(OC)C2)ccc1Nc1cc2cc(-c3cnn(CC(C)(C)O)c3)ccc2cn1 [Example 46, (4-(6-(1-(2-Hydroxy-2-methylpropyl)-1H-pyrazol-4-yl)isoquinolin-3-ylamino)-3-methoxy-phenyl)(3-methoxyazetidin-1-yl)methanone]
2 nM | COc1cc(-c2cnc(C)n2C)ccc1Nc1cc2cc(-c3ccc(C)nc3)ccc2cn1 [Example 11, N-(4-(1,2-dimethyl-1H-imidazol-5-yl)-2-methoxyphenyl)-6-(6-methylpyridin-3-yl)isoquinolin-3-amine]
2 nM | COc1cc(-c2cnc(C)n2C)ccc1Nc1cc2cc(-c3cnn(CC(C)(C)O)c3)ccc2cn1 [Example 29, 1-(4-(3-((4-(1,2-Dimethyl-1H-imidazol-5-yl)-2-methoxyphenyl)amino)isoquinolin-6-yl)-1H-pyrazol-1-yl)-2-methylpropan-2-ol]
2 nM | COc1cc(C(=O)N2CCC(C#N)CC2)ccc1Nc1cc2cc(-c3cnn(CC(C)(C)O)c3)ccc2cn1 [Example 94, 1-(4-(6-(1-(2-Hydroxy-2-methylpropyl)-1H-pyrazol-4-yl)isoquinolin-3-ylamino)-3-methoxybenzoyl)piperidine-4-carbonitrile]
1 nM | COCc1ncc(-c2ccc(Nc3cc4cc(-c5cnn(CC(C)(C)O)c5)ccc4cn3)c(OC)c2)n1C [Example 63, 1-(4-(3-((2-Methoxy-4-(2-(methoxymethyl)-1-methyl-1H-imidazol-5-yl)phenyl)amino)-isoquinolin-6-yl)-1H-pyrazol-1-yl)-2-methylpropan-2-ol]
1 nM | COc1cc(-c2cnc(C)n2C)ccc1Nc1cc2nc(-c3cnn(CC4(O)CCC4)c3)ccc2cn1 [Example 106, 1-((4-(7-(4-(1,2-Dimethyl-1H-imidazol-5-yl)-2-methoxyphenylamino)-1,6-naphthyridin-2-yl)-1H-pyrazol-1-yl)methyl)cyclobutanol]
1 nM | COc1cc(-c2nncn2C)ccc1Nc1cc2nc(-c3cnn(CC(C)(C)O)c3)ccc2cn1 [Example 105, 1-(4-(7-(2-Methoxy-4-(4-methyl-4H-1,2,4-triazol-3-yl)phenylamino)-1,6-naphthyridin-2-yl)-1H-pyrazol-1-yl)-2-methylpropan-2-ol]
1 nM | COc1cc(C(=O)N2CC3(CCOC3)C2)ccc1Nc1cc2cc(-c3cnn(CC(C)(C)O)c3)ccc2cn1 [Example 95, (4-(6-(1-(2-Hydroxy-2-methylpropyl)-1H-pyrazol-4-yl)isoquinolin-3-ylamino)-3-methoxyphenyl)(6-oxa-2-azaspiro[3,4]octan-2-yl)methanone]
